From article PMC4452296, “Comparison of Paeoniflorin and Albiflorin on Human CYP3A4 and CYP2D6” (Evidence-based Complementary and Alternative Medicine : eCAM, 2015)

Tests used:
[1] = molecular target: CYP3A4 (Homo sapiens, UniProt P08684); test: biochemical
[2] = molecular target: CYP2D6 (Homo sapiens, UniProt P10635); test: biochemical
Chain of CYP2D6 (P10635 whole entry): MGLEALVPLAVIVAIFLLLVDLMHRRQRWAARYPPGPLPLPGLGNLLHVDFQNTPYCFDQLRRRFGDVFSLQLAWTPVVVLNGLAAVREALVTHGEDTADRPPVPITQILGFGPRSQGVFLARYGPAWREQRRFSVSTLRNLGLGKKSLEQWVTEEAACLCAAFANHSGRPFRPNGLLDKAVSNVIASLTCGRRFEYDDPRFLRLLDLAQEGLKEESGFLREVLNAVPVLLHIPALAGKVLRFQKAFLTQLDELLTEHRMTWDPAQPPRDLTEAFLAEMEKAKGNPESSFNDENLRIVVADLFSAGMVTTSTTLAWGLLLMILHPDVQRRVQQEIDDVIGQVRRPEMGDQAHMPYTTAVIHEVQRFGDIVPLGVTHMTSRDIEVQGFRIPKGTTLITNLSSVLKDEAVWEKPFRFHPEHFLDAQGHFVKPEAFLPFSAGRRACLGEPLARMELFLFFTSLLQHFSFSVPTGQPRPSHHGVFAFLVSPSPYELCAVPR

Chain of CYP3A4 (P08684 2-503): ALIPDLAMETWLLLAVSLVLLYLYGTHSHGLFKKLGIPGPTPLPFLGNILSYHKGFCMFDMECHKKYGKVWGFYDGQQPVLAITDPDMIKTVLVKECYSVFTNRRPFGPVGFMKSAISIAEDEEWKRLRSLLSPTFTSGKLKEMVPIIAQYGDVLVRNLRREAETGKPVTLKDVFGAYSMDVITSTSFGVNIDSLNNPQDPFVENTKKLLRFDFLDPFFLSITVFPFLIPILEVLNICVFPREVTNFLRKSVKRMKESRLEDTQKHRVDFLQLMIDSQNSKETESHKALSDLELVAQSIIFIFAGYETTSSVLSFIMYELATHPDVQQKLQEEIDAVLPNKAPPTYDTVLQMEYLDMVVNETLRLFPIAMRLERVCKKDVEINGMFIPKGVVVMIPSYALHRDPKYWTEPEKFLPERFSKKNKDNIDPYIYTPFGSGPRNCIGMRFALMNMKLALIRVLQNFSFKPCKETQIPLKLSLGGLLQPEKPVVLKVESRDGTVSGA

Compound: CC12CC(O)C3CC1(O[C@@H]1O[C@H](CO)[C@@H](O)[C@H](O)[C@H]1O)C3(COC(=O)c1ccccc1)C(=O)O2 (stereo partly shown) [albiflorin]
- IC50 [1]: 11.4 mM
- IC50 [2]: 14.4 mM

Compound: C[C@@]12C[C@@]3(O)O[C@@H](O1)[C@]1(COC(=O)c4ccccc4)[C@H]3C[C@@]12O[C@@H]1O[C@H](CO)[C@@H](O)[C@H](O)[C@H]1O [paeoniflorin]
- IC50 [1]: 4.79 mM
- IC50 [2]: 12.7 mM
